The assay addresses cystic fibrosis transmembrane conductance regulator (CFTR) (Homo sapiens, UniProt P13569). Kind of assay: apical chloride current. The assay is classed as cell-based.

The structures appear in SMILES notation.

A word on the IC50: it is the midpoint of a concentration-inhibition curve. A higher IC50 goes with lower potency.

Chain of cystic fibrosis transmembrane conductance regulator (CFTR) (P13569 whole entry): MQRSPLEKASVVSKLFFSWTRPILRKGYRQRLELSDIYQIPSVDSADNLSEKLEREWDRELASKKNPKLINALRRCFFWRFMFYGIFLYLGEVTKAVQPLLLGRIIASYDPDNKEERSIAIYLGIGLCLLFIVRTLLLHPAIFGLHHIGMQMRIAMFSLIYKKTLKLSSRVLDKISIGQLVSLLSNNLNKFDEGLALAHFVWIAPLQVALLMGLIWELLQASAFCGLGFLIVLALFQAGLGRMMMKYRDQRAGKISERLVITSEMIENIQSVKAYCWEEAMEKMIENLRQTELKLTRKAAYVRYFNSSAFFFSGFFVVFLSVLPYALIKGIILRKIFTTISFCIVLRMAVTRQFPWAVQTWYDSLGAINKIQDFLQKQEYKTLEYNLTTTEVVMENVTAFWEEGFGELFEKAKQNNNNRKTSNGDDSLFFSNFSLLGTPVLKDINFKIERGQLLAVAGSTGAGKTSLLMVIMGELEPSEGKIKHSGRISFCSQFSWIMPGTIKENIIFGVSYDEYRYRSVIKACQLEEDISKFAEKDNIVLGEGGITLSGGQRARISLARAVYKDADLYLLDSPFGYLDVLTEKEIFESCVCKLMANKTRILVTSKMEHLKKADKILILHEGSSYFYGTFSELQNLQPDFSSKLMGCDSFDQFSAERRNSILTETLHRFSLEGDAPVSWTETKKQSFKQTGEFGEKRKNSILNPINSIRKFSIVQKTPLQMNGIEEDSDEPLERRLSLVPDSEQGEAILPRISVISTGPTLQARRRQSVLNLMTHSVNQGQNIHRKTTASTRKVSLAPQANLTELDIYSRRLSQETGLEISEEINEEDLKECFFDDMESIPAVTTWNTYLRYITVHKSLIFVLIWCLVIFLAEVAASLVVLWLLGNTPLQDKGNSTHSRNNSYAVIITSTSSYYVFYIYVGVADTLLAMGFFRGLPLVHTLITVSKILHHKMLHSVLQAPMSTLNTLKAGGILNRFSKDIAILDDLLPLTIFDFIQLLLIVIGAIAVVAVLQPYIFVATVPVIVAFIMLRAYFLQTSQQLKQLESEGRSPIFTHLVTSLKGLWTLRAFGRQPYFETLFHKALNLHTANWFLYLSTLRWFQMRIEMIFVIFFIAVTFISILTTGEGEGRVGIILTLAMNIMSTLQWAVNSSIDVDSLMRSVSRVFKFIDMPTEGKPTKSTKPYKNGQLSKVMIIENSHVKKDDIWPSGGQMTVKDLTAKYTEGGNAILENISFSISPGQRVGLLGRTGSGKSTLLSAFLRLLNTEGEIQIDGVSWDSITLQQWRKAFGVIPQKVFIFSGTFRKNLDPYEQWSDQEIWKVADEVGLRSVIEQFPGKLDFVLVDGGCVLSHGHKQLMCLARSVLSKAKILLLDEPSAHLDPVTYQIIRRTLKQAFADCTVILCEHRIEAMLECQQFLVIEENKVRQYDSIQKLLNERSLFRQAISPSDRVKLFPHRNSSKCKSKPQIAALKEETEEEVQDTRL

`CCOC(=O)CSc1nc2ccccc2c(=O)n1-c1ccccc1C` [DQA, ethyl 2-(4-oxo-3-o-tolyl-3,4-dihydroquinazolin-2-ylthio)acetate] showed an IC50 of approximately 20 µM.

Source of the values: paper PMC3480796 (Indian Journal of Pharmacology, 2012).
